From patent US5591741A, “Fungicidal spiroheterocyclic derivatives” (American Cyanamid Company, priority 1993, dated 1997)

Experiments:
[1] = tested on: Erysiphe graminis f.sp. hordei; assay: Direct protectant activity against barley powdery mildew (EGP); format: in vivo; settings: direct protectant foliar spray, 8 days
Outline: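 Rating reflects percentage of leaf area with sporulation compared with untreated or diluent-sprayed controls. Protectant spray was applied to single-leaf barley (cv Golden Promise) 24 h before conidia inoculation. Plants were kept at 18 °C and 40% RH throughout, with 8 days of disease development.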

[2] = tested on: Rhizoctonia solani; assay: Activity against Rhizoctonia in-vitro (RSI); format: cell-based; settings: 10 ppm, 10 days, 20° C., mycelial growth
Outline: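 Compound at a final 10 ppm (acetone vehicle) in half-strength PDB, inoculated with 5×10^4 fragments/ml of shaken-culture R. solani mycelium. After incubation at 20° C for 10 days, growth scored as a rating versus untreated or diluent-treated controls.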

[3] = tested on: Phytophthora infestans; format: in vivo; settings: tomato, direct protectant foliar spray
[4] = tested on: Venturia inaequalis; assay: Activity against apple scab in-vitro (VII); format: cell-based; settings: 10 ppm, 10 days, 20° C., mycelial growth
Outline: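 V. inaequalis propagules (5×10^4/ml, malt agar-grown) were exposed in half-strength PDB to 10 ppm final test compound delivered in acetone. Growth was scored after incubation for 10 days at 20° C, as a rating relative to untreated or diluent-sprayed controls.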

[5] = tested on: Alternaria solani; assay: Activity against tomato early blight (AS); format: in vivo; settings: Table VI; tomato seedlings, contact prophylactic foliar spray, 4 days
Outline: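 Plants were challenged with A. solani conidia (10^4 spores/ml) 24 h after a protective foliar spray of compound in 50:50 acetone/water plus 0.04% Tween 20. Held humid at 21° C for 4 days, then percent leaf area with lesions was scored as a rating relative to controls.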

[6] = tested on: Erysiphe graminis f.sp. hordei; assay: Activity against barley powdery mildew, direct therapeutic (EGT); format: in vivo; settings: direct therapeutic foliar spray, 600 ppm, up to 7 days
Outline: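 A curative spray at 600 ppm was applied to single-leaf Golden Promise barley inoculated with powdery mildew conidia the previous day. After up to 7 days at 18 °C and 40% humidity, disease control was rated from percent leaf area sporulating relative to untreated or diluent-sprayed controls.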

[7] = tested on: Pyricularia oryzae; format: in vivo; settings: rice seedlings, direct therapeutic foliar spray, 600 ppm, 4-5 days
[8] = tested on: Leptosphaeria nodorum; assay: Activity against wheat leafspot (LN); format: in vivo; settings: direct therapeutic foliar spray, 600 ppm, 6-8 days
Outline: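 Therapeutic foliar spray: compound at 600 ppm applied to single-leaf wheat (cv Norman) 24 h after inoculation with 1.5×10^6 conidia/ml. Disease control scored after 6-8 days at 22° C and 70% humidity as lesions per leaf versus untreated or diluent-sprayed controls.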

[9] = tested on: Plasmopara viticola; assay: Antisporulant activity against vine downy mildew (PVA); format: in vivo; settings: vine leaves, antisporulant foliar spray, 600 ppm, 750 l/ha
Outline: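 Cabernet Sauvignon vines (~8 cm) inoculated on lower leaf surfaces with 5×10^4 zoosporangia/ml, held 24 h at 21° C high humidity then 24 h glasshouse. Infected leaves sprayed underside with 600 ppm compound in 1:1 water/acetone, 0.04% Tween 20, 750 l/ha; 96 h glasshouse, 24 h humidity. Sporulating leaf area rated versus control.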

[10] = tested on: Pseudocercosporella herpotrichoides; assay: Activity against wheat eyespot in-vitro (PHI); format: cell-based; settings: 10 ppm, 10 days, 20° C., mycelial growth
Outline: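 Mycelial growth was scored after 10 days at 20 °C against untreated or diluent controls. The broth was half-strength potato dextrose, holding 10 ppm test compound (from acetone) and 5×10^4 fragments/ml of the eyespot fungus.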

[11] = tested on: Botrytis cinerea; assay: Direct protectant activity against broad bean grey mould (BCB); format: in vivo; settings: direct protectant foliar spray, 600 ppm, 4 days
Outline: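 Protectant foliar test: lesion coverage assessed 4 days after inoculation and rated relative to untreated or diluent-sprayed plants. Compound applied at 600 ppm to cv The Sutton leaves 24 h before 10^6 conidia/ml suspension; incubation at 22 °C in high humidity.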

| Structure (SMILES) | disease control rating EGP [1] | disease control rating RSI [2] | disease control rating PIP [3] | disease control rating VII [4] | disease control rating AS [5] | disease control rating EGT [6] | disease control rating PO [7] | disease control rating LN [8] | disease control rating PVA [9] | disease control rating PHI [10] | disease control rating BCB [11] |
| --- | --- | --- | --- | --- | --- | --- | --- | --- | --- | --- | --- |
| CC(C)(C)C1CCC2(CC1)CC(NC1C3CC4CC(C3)CC1C4)CO2 (centres unmarked) [Compound 86] | 2 (greater than 80% disease control) | 0 (less than 50% disease control) | 2 (greater than 80% disease control) | 1 (about 50-80% disease control) | 2 (greater than 80% disease control) | 2 (greater than 80% disease control) | 0 (less than 50% disease control) | 0 (less than 50% disease control) | 0 (less than 50% disease control) | 0 (less than 50% disease control) | 0 (less than 50% disease control) |
| CC1CCCCC1NC1COC2(CCC(C(C)(C)C)CC2)C1 (centres unmarked) [Compound 87] | 2 (greater than 80% disease control) | 1 (about 50-80% disease control) | 2 (greater than 80% disease control) | 1 (about 50-80% disease control) | 0 (less than 50% disease control) | 2 (greater than 80% disease control) | 0 (less than 50% disease control) | 0 (less than 50% disease control) | 0 (less than 50% disease control) | 0 (less than 50% disease control) | 0 (less than 50% disease control) |
| CC1CCCC(NC2COC3(CCC(C(C)(C)C)CC3)C2)C1 (centres unmarked) [Compound 88] | 2 (greater than 80% disease control) | 1 (about 50-80% disease control) | 2 (greater than 80% disease control) | 1 (about 50-80% disease control) | 0 (less than 50% disease control) | 2 (greater than 80% disease control) | 0 (less than 50% disease control) | 0 (less than 50% disease control) | 0 (less than 50% disease control) | 0 (less than 50% disease control) | 2 (greater than 80% disease control) |
| CC1CCC(NC2COC3(CCC(C(C)(C)C)CC3)C2)CC1 (centres unmarked) [Compound 89] | 2 (greater than 80% disease control) | 1 (about 50-80% disease control) | 0 (less than 50% disease control) | 0 (less than 50% disease control) | 0 (less than 50% disease control) | 2 (greater than 80% disease control) | 0 (less than 50% disease control) | 1 (about 50-80% disease control) | 1 (about 50-80% disease control) | 0 (less than 50% disease control) | 0 (less than 50% disease control) |
| CC(C)(C)C1CCC2(CC1)CC(NC1CCC(O)CC1)CO2 (centres unmarked) [Compound 90] | 2 (greater than 80% disease control) | 0 (less than 50% disease control) | 2 (greater than 80% disease control) | 0 (less than 50% disease control) | 0 (less than 50% disease control) | 2 (greater than 80% disease control) | 0 (less than 50% disease control) | 0 (less than 50% disease control) | 0 (less than 50% disease control) | 0 (less than 50% disease control) | 2 (greater than 80% disease control) |
| CN(CC1CCCCC1)C1COC2(CCC(C(C)(C)C)CC2)C1 (centres unmarked) [Compound 91] | 2 (greater than 80% disease control) | 0 (less than 50% disease control) | 2 (greater than 80% disease control) | 0 (less than 50% disease control) | 0 (less than 50% disease control) | 2 (greater than 80% disease control) | 0 (less than 50% disease control) | 1 (about 50-80% disease control) | 0 (less than 50% disease control) | 2 (greater than 80% disease control) | 1 (about 50-80% disease control) |
| CCN(CC1CCCCC1)C1COC2(CCC(C(C)(C)C)CC2)C1 (centres unmarked) [Compound 92] | 2 (greater than 80% disease control) | 1 (about 50-80% disease control) | 2 (greater than 80% disease control) | 0 (less than 50% disease control) | 0 (less than 50% disease control) | 2 (greater than 80% disease control) | 0 (less than 50% disease control) | 0 (less than 50% disease control) | 0 (less than 50% disease control) | 0 (less than 50% disease control) | 2 (greater than 80% disease control) |
| CCCN(CC1CCCCC1)C1COC2(CCC(C(C)(C)C)CC2)C1 (centres unmarked) [Compound 93] | 2 (greater than 80% disease control) | 1 (about 50-80% disease control) | 2 (greater than 80% disease control) | 0 (less than 50% disease control) | 0 (less than 50% disease control) | 2 (greater than 80% disease control) | 0 (less than 50% disease control) | 0 (less than 50% disease control) | 0 (less than 50% disease control) | 0 (less than 50% disease control) | 0 (less than 50% disease control) |
| CCC(CC)N(C)C1COC2(CCC(C(C)(C)C)CC2)C1 (centres unmarked) [Compound 94] | 2 (greater than 80% disease control) | 1 (about 50-80% disease control) | 0 (less than 50% disease control) | 0 (less than 50% disease control) | 0 (less than 50% disease control) | 2 (greater than 80% disease control) | 0 (less than 50% disease control) | 1 (about 50-80% disease control) | 0 (less than 50% disease control) | 0 (less than 50% disease control) | 0 (less than 50% disease control) |
| CCC(CC)N(CC)C1COC2(CCC(C(C)(C)C)CC2)C1 (centres unmarked) [Compound 95] | 2 (greater than 80% disease control) | 1 (about 50-80% disease control) | 0 (less than 50% disease control) | 0 (less than 50% disease control) | 0 (less than 50% disease control) | 2 (greater than 80% disease control) | 0 (less than 50% disease control) | 0 (less than 50% disease control) | 0 (less than 50% disease control) | 0 (less than 50% disease control) | 0 (less than 50% disease control) |
